Experimental data reported in patent US11000033B2, “Ketone or oxime compound, and herbicide” (NISSAN CHEMICAL CORPORATION, priority 2014, dated 2021).

Assays:
Assay type in all cases: in vivo
Apera spica-venti [1] = test: Test Example 5: herbicidal effect by foliage application, plastic box (symbol L); conditions: 320 g/ha, 3 weeks after application
Procedure, shortened: (§1)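 Greenhouse foliar test: seedlings at 14 days, grown 25° C. to 30° C. in sterilized diluvial soil; compound applied as an aqueous dilution of an emulsion; response read 3 weeks after spraying.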

Cyperus difformis = test: Test Example 3: herbicidal effect by foliage application, Wagner pot (symbol E); conditions: application herbicide amount 320 g/ha
Procedure, shortened: (§2)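 Plants sown in submerged alluvial soil (water depth 0.1–0.5 cm) in a 25–30 °C greenhouse and grown 14 days. An emulsion of the compound diluted in water to a set herbicide amount was sprayed uniformly on foliage. Effect on each plant scored 3 weeks after application.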

Scirpus juncoides = test: Test Example 1: herbicidal activity, application before weed generation in submerged conditions (symbol B); conditions: application herbicide amount 320 g/ha
Procedure, shortened: (§3)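 Pre-emergence, paddy conditions: emulsifiable formulation diluted in water, dosed onto floodwater (4 cm depth) on sowing day. Alluvial soil; weeds sown mixed; rice transplanted at 2.5-leaf stage. Greenhouse 25–30 °C, 3 wk. Score 0–5 (5 = ≥90% kill, 0 = ≤5%).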

Setaria viridis = test: Test Example 4: herbicidal effect by soil treatment (symbol G); conditions: application herbicide amount 320 g/ha
Procedure, shortened: (§4)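 Seeds were sown in sterilized diluvial soil, covered with about 1.5 cm of soil, and the soil surface was sprayed with a water-diluted emulsion of the compound at a predetermined rate. Plants grew in a greenhouse at 25° C. to 30° C.; effects were scored visually 3 weeks after application.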

Alopecurus myosuroides [2] = test: Test Example 4: herbicidal effect by soil treatment (symbol J); conditions: application herbicide amount 320 g/ha
Procedure, shortened: as §4

rapeseed [3] = test: Test Example 5: effect on crop by foliage application, plastic box (symbol g); conditions: 320 g/ha, 3 weeks after application
Procedure, shortened: (§5)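 Crop and weed seeds sown in spots in sterilized diluvial soil in plastic boxes and covered with about 1.5 cm soil. Plants raised in a greenhouse at 25° C. to 30° C. for foliar application.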

beet = test: Test Example 5: effect on crop by foliage application, plastic box (symbol f); conditions: 320 g/ha, 3 weeks after application
Procedure, shortened: as §5

Galium spurium [4] = test: Test Example 4: herbicidal effect by soil treatment (symbol Q); conditions: application herbicide amount 320 g/ha
Procedure, shortened: as §4

Apera spica-venti [5] = test: Test Example 4: herbicidal effect by soil treatment (symbol L); conditions: application herbicide amount 320 g/ha
Procedure, shortened: as §4

Abutilon theophrasti = test: Test Example 5: herbicidal effect by foliage application, plastic box (symbol M); conditions: 320 g/ha, 3 weeks after application
Procedure, shortened: as §1

Galium spurium [6] = test: Test Example 5: herbicidal effect by foliage application, plastic box (symbol Q); conditions: 320 g/ha, 3 weeks after application
Procedure, shortened: as §1

Alopecurus myosuroides [7] = test: Test Example 5: herbicidal effect by foliage application, plastic box (symbol J); conditions: 320 g/ha, 3 weeks after application
Procedure, shortened: as §1

Amaranthus retroflexus = test: Test Example 5: herbicidal effect by foliage application, plastic box (symbol N); conditions: 320 g/ha, 3 weeks after application
Procedure, shortened: as §1

[8] = test system: Echinochloa oryzacola Vasing.; test: Test Example 1: herbicidal activity, application before weed generation in submerged conditions (symbol A); conditions: application herbicide amount 320 g/ha
Procedure, shortened: as §3

rapeseed [9] = test: Test Example 4: effect on crop by soil treatment (symbol g); conditions: application herbicide amount 320 g/ha
Procedure, shortened: (§6)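 Soil-treatment setup: crop and weed seeds were spot-sown into sterilized diluvial soil, then buried beneath approximately 1.5 cm of it, and the boxes were housed in a 25–30° C. greenhouse.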

Digitaria ciliaris = test: Test Example 5: herbicidal effect by foliage application, plastic box (symbol F); conditions: 320 g/ha, 3 weeks after application
Procedure, shortened: as §1

Stellaria media = test: Test Example 5: herbicidal effect by foliage application, plastic box (symbol P); conditions: 320 g/ha, 3 weeks after application
Procedure, shortened: as §1

wheat = test: Test Example 4: effect on crop by soil treatment (symbol e); conditions: application herbicide amount 320 g/ha
Procedure, shortened: as §6

[10] = test system: Echinochloa crus-galli var. crus-galli; test: Test Example 3: herbicidal effect by foliage application, Wagner pot (symbol H); conditions: application herbicide amount 320 g/ha
Procedure, shortened: as §2

SMILES | L: Apera spica-venti, herbicidal effect (criteria of Test Example 1) (Apera spica-venti [1]) | herbicidal effect on E, grade 0-5 (Cyperus difformis) | Herbicidal effect grade, B: Scirpus juncoides (Scirpus juncoides) | G: Setaria viridis, herbicidal effect grade (Setaria viridis) | J: Alopecurus myosuroides, herbicidal effect grade (Alopecurus myosuroides [2]) | g: rapeseed, effect on crop (criteria of Test Example 1) (rapeseed [3]) | f: beet, effect on crop (criteria of Test Example 1) (beet) | Q: Galium spurium, herbicidal effect grade (Galium spurium [4]) | L: Apera spica-venti, herbicidal effect grade (Apera spica-venti [5]) | M: Abutilon theophrasti, herbicidal effect (criteria of Test Example 1) (Abutilon theophrasti) | Q: Galium spurium, herbicidal effect (criteria of Test Example 1) (Galium spurium [6]) | J: Alopecurus myosuroides, herbicidal effect (criteria of Test Example 1) (Alopecurus myosuroides [7]) | N: Amaranthus retroflexus, herbicidal effect (criteria of Test Example 1) (Amaranthus retroflexus) | Herbicidal effect grade, A: Echinochloa oryzacola Vasing. [8] | g: rapeseed, effect on crop grade (rapeseed [9]) | F: Digitaria ciliaris, herbicidal effect (criteria of Test Example 1) (Digitaria ciliaris) | P: Stellaria media, herbicidal effect (criteria of Test Example 1) (Stellaria media) | e: wheat, effect on crop grade (wheat) | herbicidal effect on H (Echinochloa crus-galli var. crus-galli), grade 0-5 [10] | other results
CON=C(C)CC1CC(OC(=O)COc2ccccc2)=C(c2c(C)cc(-c3ccc(Cl)cc3)cc2OC)C1=O (stereo not drawn) [6-079] | 5 (Herbicidal ratio of 90% or more (almost completely withered)) | 4 (Herbicidal ratio of 70% or higher and lower than 90%) | 0 (Herbicidal ratio of 5% or lower (almost no effect)) | 5 (Herbicidal ratio of 90% or more (almost completely withered)) | 3 (Herbicidal ratio of 40% or higher and lower than 70%) | 4 (Herbicidal ratio of 70% or higher and lower than 90%) | 0 (Herbicidal ratio of 5% or lower (almost no effect)) | 0 (Herbicidal ratio of 5% or lower (almost no effect)) | 5 (Herbicidal ratio of 90% or more (almost completely withered)) | 4 (Herbicidal ratio of 70% or higher and lower than 90%) | 4 (Herbicidal ratio of 70% or higher and lower than 90%) | 5 (Herbicidal ratio of 90% or more (almost completely withered)) | 0 (Herbicidal ratio of 5% or lower (almost no effect)) | 4 (Herbicidal ratio of 70% or higher and lower than 90%) | 0 (Herbicidal ratio of 5% or lower (almost no effect)) | 5 (Herbicidal ratio of 90% or more (almost completely withered)) | 3 (Herbicidal ratio of 40% or higher and lower than 70%) | 3 (Herbicidal ratio of 40% or higher and lower than 70%) | 5 (Herbicidal ratio of 90% or more (almost completely withered)) | –
CON=C(C)CC1CC(O)=C(c2c(C)cc(C(C)=NOC)cc2C)C1=O (stereo not drawn) [6-065] | 5 (Herbicidal ratio of 90% or more (almost completely withered)) | 5 (Herbicidal ratio of 90% or more (almost completely withered)) | 2 (Herbicidal ratio of 20% or higher and lower than 40%) | 5 (Herbicidal ratio of 90% or more (almost completely withered)) | 5 (Herbicidal ratio of 90% or more (almost completely withered)) | 4 (Herbicidal ratio of 70% or higher and lower than 90%) | 3 (Herbicidal ratio of 40% or higher and lower than 70%) | 4 (Herbicidal ratio of 70% or higher and lower than 90%) | 5 (Herbicidal ratio of 90% or more (almost completely withered)) | 2 (Herbicidal ratio of 20% or higher and lower than 40%) | 3 (Herbicidal ratio of 40% or higher and lower than 70%) | 5 (Herbicidal ratio of 90% or more (almost completely withered)) | 0 (Herbicidal ratio of 5% or lower (almost no effect)) | 4 (Herbicidal ratio of 70% or higher and lower than 90%) | 3 (Herbicidal ratio of 40% or higher and lower than 70%) | 5 (Herbicidal ratio of 90% or more (almost completely withered)) | 3 (Herbicidal ratio of 40% or higher and lower than 70%) | 5 (Herbicidal ratio of 90% or more (almost completely withered)) | 5 (Herbicidal ratio of 90% or more (almost completely withered)) | –
CON=C(C)CC1CC(O)=C(c2c(OC)cc(C)cc2OC)C1=O (stereo not drawn) [6-103] | 5 (Herbicidal ratio of 90% or more (almost completely withered)) | 5 (Herbicidal ratio of 90% or more (almost completely withered)) | 0 (Herbicidal ratio of 5% or lower (almost no effect)) | – | – | 4 (Herbicidal ratio of 70% or higher and lower than 90%) | 0 (Herbicidal ratio of 5% or lower (almost no effect)) | – | – | 2 (Herbicidal ratio of 20% or higher and lower than 40%) | 0 (Herbicidal ratio of 5% or lower (almost no effect)) | 5 (Herbicidal ratio of 90% or more (almost completely withered)) | 0 (Herbicidal ratio of 5% or lower (almost no effect)) | 5 (Herbicidal ratio of 90% or more (almost completely withered)) | – | 5 (Herbicidal ratio of 90% or more (almost completely withered)) | 1 (Herbicidal ratio of 5% or higher and lower than 20%) | – | 5 (Herbicidal ratio of 90% or more (almost completely withered)) | Herbicidal effect grade, G: Setaria viridis (Setaria viridis): 5 (Herbicidal ratio of 90% or more (almost completely withered)); Herbicidal effect grade, J: Alopecurus myosuroides (Alopecurus myosuroides [2]): 5 (Herbicidal ratio of 90% or more (almost completely withered)); Herbicidal effect grade, Q: Galium spurium (Galium spurium [4]): 0 (Herbicidal ratio of 5% or lower (almost no effect)); Herbicidal effect grade, L: Apera spica-venti (Apera spica-venti [5]): 5 (Herbicidal ratio of 90% or more (almost completely withered)); Effect on crop grade, g: rapeseed (rapeseed [9]): 0 (Herbicidal ratio of 5% or lower (almost no effect)); Effect on crop grade, e: wheat (wheat): 5 (Herbicidal ratio of 90% or more (almost completely withered))
